Results on one compound are retold here after patent publication US20230285321A1, “COMPOSITIONS AND METHODS USING A COMBINATION OF AUTOPHAGY INDUCER AND HIGH PROTEIN FOR INDUCTION OF AUTOPHAGY” (SOCIETE DES PRODUITS NESTLE S.A., priority 2018, published 2023).

This assay concerns LC3-II protein (muscle autophagy) in skeletal muscle (quadriceps). The assay is described as follows: LC3-II western blot (normalized to GAPDH) in quadriceps of mice fed defined diets, with or without autophagy inducer in drinking water. The format is in vivo, C57b16/J mice. Particulars: 4 weeks ad libitum, 3 mM in drinking water. As to the method: 10-15 week-old C57b16/J mice were fed during ad libitum for 4 weeks with one of: a standard diet, a diet rich in proteins and poor in carbohydrates (high protein isocaloric), or a diet poor in proteins and rich in carbohydrates (low protein isocaloric). Each group was treated or not with 3 mM of autophagy inducer (e.g., spermidine) in the drinking water. Standard diet was composed of 16% fats (Soybean oil), 20% proteins (casein) and 64% carbohydrates (40% cornstarch, 14% dextrinized cornstarch, 10% sucrose). Low protein diet was composed of 16% fats (Soybean oil), 5% proteins (casein) and 79% carbohydrates (62% cornstarch, 10% dextrinized cornstarch, 7% sucrose). […]
Total protein lysates were extracted from 30-50 mg of tissues homogenized in 20 ml/g of RIPA buffer (150 mM sodium chloride, 50 mM Tris pH: 8, 1% Triton X-100, 0.5% deoxycolate, 0.1% SDS, protease inhibitors cocktail) with a tissue dissociator (gentleMACS Miltenyi Biotec). Protein concentration was determined by BCA assay, and samples were prepared adding 4X LDS sample buffer (Invitrogen). […] Membranes were incubated with LC3 (Novus Biologicals 2220) and GAPDH (Cell Signaling 2118) antibodies and detected with ECL substrates (Pierce). Protein quantification was performed by densitometric analysis of images using ImageJ software. […]
A general note: Immunoblotting shows a protein as a band on a membrane.

The structures appear in SMILES notation.

Consider `NCCCCNCCCN` [spermidine], for which the “muscle autophagy (LC3-II protein amount normalized to GAPDH)” value runs as follows: (high-protein isocaloric diet (60% proteins), ***p<0.001) “synergistically induces muscle autophagy”; (low protein isocaloric diet (5% proteins)) “inactive”.
